Test results: ChEMBL document CHEMBL1137022, “The Ssk1p response regulator and Chk1p histidine kinase mutants of Candida albicans are hypersensitive to fluconazole and voriconazole” (Antimicrob Agents Chemother, 2007)
≈ marks a conversion by molar mass, not a printed value. Calls of active or inactive are those of the source. The rule behind the calls is not given here.

How the values were obtained:
Candida albicans [1] = test: Fungistatic activity against Candida albicans CHK21 after 24 to 48 hrs by broth microdilution assay; type: functional
Candida albicans [2] = test: Fungistatic activity against Candida albicans SSK21 after 24 to 48 hrs by broth microdilution assay; type: functional
Candida albicans [3] = test: Fungicidal activity against Candida albicans SSK21 assessed as reduction in cell viability at 4 times MIC after 24 hrs; type: functional, organism-based
Candida albicans [4] = test: Fungistatic activity against Candida albicans SKN7 mutant after 24 to 48 hrs by broth microdilution assay; type: functional, organism-based
Candida albicans [5] = test: Fungicidal activity against Candida albicans SSK21 assessed as reduction in cell viability at MIC after 24 hrs; type: functional, organism-based
Candida albicans [6] = test: Fungicidal activity against wild type Candida albicans CAF2-1 assessed as reduction in cell viability at 4 times MIC of SSK21/CHK21 after 24 hrs; type: functional, organism-based
Candida albicans [7] = test: Fungicidal activity against Candida albicans SSK23 assessed as reduction in cell viability at 4 times MIC of SSK21/CHK21 after 24 hrs; type: functional, organism-based
Candida albicans [8] = test: Fungicidal activity against Candida albicans CHK21 assessed as reduction in cell viability at MIC after 24 hrs; type: functional, organism-based
Candida albicans [9] = test: Fungistatic activity against Candida albicans SSK23 after 24 to 48 hrs by broth microdilution assay; type: functional
Candida albicans [10] = test: Fungicidal activity against Candida albicans SSK23 assessed as reduction in cell viability at MIC of SSK21/CHK21 after 24 hrs; type: functional, organism-based
Candida albicans [11] = test: Fungicidal activity against Candida albicans CHK23 assessed as reduction in cell viability at 4 times MIC of SSK21/CHK21 after 24 hrs; type: functional, organism-based
Candida albicans [12] = test: Fungistatic activity against Candida albicans CHK23 after 24 to 48 hrs by broth microdilution assay; type: functional
Candida albicans [13] = test: Fungicidal activity against Candida albicans CHK23 assessed as reduction in cell viability at MIC of SSK21/CHK21 after 24 hrs; type: functional, organism-based
Candida albicans [14] = test: Fungicidal activity against Candida albicans CHK21 assessed as reduction in cell viability at 4 times MIC after 24 hrs; type: functional, organism-based
Candida albicans [15] = test: Fungistatic activity against wild type Candida albicans CAF2-1 after 24 to 48 hrs by broth microdilution assay; type: functional
Candida albicans [16] = test: Fungicidal activity against wild type Candida albicans CAF2-1 assessed as reduction in cell viability at MIC of SSK21/CHK21 after 24 hrs; type: functional, organism-based
Candida albicans [17] = test: Fungistatic activity against Candida albicans SLN1 HK mutant after 24 to 48 hrs by broth microdilution assay; type: functional, organism-based
Candida albicans [18] = test: Ratio of MIC for Candida albicans CHK21 to MIC for Candida albicans SSK21; type: functional
Candida albicans [19] = test: Drug uptake in Candida albicans SSK21 at 3.6 ng/ml after 1 hrs by liquid scintillation counting relative to wild type Candida albicans CAF2-1; type: ADME, organism-based

## Clc1ccc(COC(Cn2ccnc2)c2ccc(Cl)cc2Cl)c(Cl)c1 (configuration not stated)
Candida albicans [1]
  Activity: Active
Candida albicans [2]
  Activity: Active

## C[C@@H]1[C@H](O)[C@@H](C)/C=C/C=C/C=C/C=C/C=C/C=C/C=C/[C@H](O[C@@H]2O[C@H](C)[C@@H](O)[C@H](N)[C@@H]2O)C[C@@H]2O[C@](O)(C[C@@H](O)C[C@@H](O)[C@H](O)CC[C@@H](O)C[C@@H](O)CC(=O)O[C@H]1C)C[C@H](O)[C@H]2C(=O)O
Candida albicans [1]
  Activity: Active
Candida albicans [2]
  Activity: Active

## C[C@@H](c1ncncc1F)[C@](O)(Cn1cncn1)c1ccc(F)cc1F [VORICONAZOLE]
Candida albicans [3]
  Activity: Active
Candida albicans [4]
  Activity: Active
Candida albicans [1]
  MIC: 0.015 µg/mL (≈ 0.0429 µM)
Candida albicans [5]
  Activity: inactive
Candida albicans [6]
  Activity: Active
Candida albicans [7]
  Activity: Active
Candida albicans [8]
  Activity: inactive
Candida albicans [9]
  MIC: 0.064 µg/mL (≈ 0.183 µM)
Candida albicans [10]
  Activity: inactive
Candida albicans [11]
  Activity: Active
Candida albicans [12]
  MIC: 1 µg/mL (≈ 2.86 µM)
Candida albicans [13]
  Activity: inactive
Candida albicans [14]
  Activity: Active
Candida albicans [15]
  MIC: 0.5 µg/mL (≈ 1.43 µM)
Candida albicans [16]
  Activity: inactive
Candida albicans [17]
  Activity: Active
Candida albicans [2]
  MIC: 0.008 µg/mL (≈ 0.0229 µM)

## CC(=O)N1CCN(c2ccc(OCC3COC(Cn4ccnc4)(c4ccc(Cl)cc4Cl)O3)cc2)CC1 (configuration not stated)
Candida albicans [1]
  Activity: Active
Candida albicans [2]
  Activity: Active

## OC(Cn1cncn1)(Cn1cncn1)c1ccc(F)cc1F [FLUCONAZOLE]
Candida albicans [3]
  Activity: Active
Candida albicans [1]
  MIC: 1 µg/mL (≈ 3.27 µM)
Candida albicans [5]
  Activity: inactive
Candida albicans [6]
  Activity: Active
Candida albicans [7]
  Activity: Active
Candida albicans [8]
  Activity: inactive
Candida albicans [9]
  MIC: 0.25 µg/mL (≈ 0.816 µM)
Candida albicans [10]
  Activity: inactive
Candida albicans [11]
  Activity: Active
Candida albicans [12]
  MIC: 16 µg/mL (≈ 52.2 µM)
Candida albicans [13]
  Activity: inactive
Candida albicans [18]
  Ratio: 30
Candida albicans [14]
  Activity: Active
Candida albicans [15]
  MIC: 16 µg/mL (≈ 52.2 µM)
Candida albicans [16]
  Activity: inactive
Candida albicans [2]
  MIC: 0.032 µg/mL (≈ 0.104 µM)

## [3H]OC(Cn1cncn1)(Cn1cncn1)c1ccc(F)cc1F [[3H]FLUCONAZOLE]
Candida albicans [19]
  fold change (FC): 2

## CC[C@H](C)C[C@H](C)CCCCCCCCC(=O)N[C@H]1C[C@@H](O)[C@@H](NCCN)NC(=O)[C@@H]2[C@@H](O)CCN2C(=O)[C@H]([C@H](O)CCN)NC(=O)[C@H]([C@H](O)[C@@H](O)c2ccc(O)cc2)NC(=O)[C@@H]2C[C@@H](O)CN2C(=O)[C@H]([C@@H](C)O)NC1=O
Candida albicans [1]
  Activity: Active
Candida albicans [2]
  Activity: Active
